For assay [1], the target named is T1, interaction of the CD of AMIGO2 and PH domain of PDK1 (Homo sapiens, UniProt O15530).
T1 construct: the purified His tagged PH domain proteins were incubated with Ni^2+-NTA resins; made in house; host or cells: Escherichia coli BL21
T1 sequence (O15530 459-550 limits assumed): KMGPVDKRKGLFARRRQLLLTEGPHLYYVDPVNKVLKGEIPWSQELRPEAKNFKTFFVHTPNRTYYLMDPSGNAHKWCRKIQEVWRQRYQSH
The assay can be described thus: Peptide competition assay (GST-AMIGO2 CD versus peptide on His-tagged PDK1 PH). The assay is classed as binding. As to conditions: His-tagged PDK1 PH with GST-AMIGO2 CD and peptide, dose dependent. On the procedure: (§1) For the peptide binding assay, the purified His-tagged PH domain proteins were incubated with Ni^2+-NTA resins for 1 h, incubated in vitro with the FITC-PTD-A2 or Con-pep for 1 h, washed five times, eluted with elution buffer. The FITC level of eluted material was then measured using FLUOstar Omega (BGMLABTECH). For the peptide competition assay, the purified His tagged PH domain proteins were incubated with Ni^2+-NTA resins for 1 h, incubated in vitro with the Cytoplasm Domain protein of AMIGO2 proteins with FITC-PTD-A2 or Con-pep for 1 h, washed five times, eluted with elution buffer, and the fluorescence was measured. The FITC level of eluted material was then measured using FLUOstar Omega.

For another assay, the system named is B16F10 melanoma tumors. The assay can be described thus: B16F10 melanoma tumor model. The assay is classed as in vivo, mouse. The following applies: 4 mg/kg every other day. On the procedure:
B16F10 melanoma cells (2.5×10^5 cells in 100 μl) were subcutaneously injected into the dorsal flank of 6-7 week-old mice and then PTD-Con or PTD-A2 peptide (4 mg/kg every other day) was administered by intratumoral injection after the tumor volume exceeded 100 mm^3. The size was evaluated every day, tumor samples were frozen sectioned, and stained with anti-CD31 antibody to detect the tumor vascular changes, and then examined the apoptosis bio TUNEL staining. For the TUNEL assay, an in situ cell death detection kit (Roche) was used, and sections were analyzed using a confocal microscope (LSM 700 META; Carl Zeiss).

The subject of a further assay is C57BL/6 mice. The assay can be described thus: Matrigel plug angiogenesis assay. The format is in vivo, mouse. As to conditions: 25 μM peptide with VEGF 200 ng, subcutaneous, five days. How it is done:
Angiogenesis was evaluated as previously described (Choi et al., 2009). PBS; Matrigel™ (500 μL; BD Biosciences) mixed with PTD-A2 (25 μM), VEGF (200 ng) and heparin (10 U); and Con-pep (25 μM), VEGF (200 ng) and heparin (10 u) were each subcutaneously injected to Five- to six-week-old C57BL/6 mice. Following injection, the Matrigel™ rapidly formed a single, solid gel plug. After five days, the skin of the mouse was pulled back to expose the Matrigel™ plug, which remained intact. To quantify blood vessel formation, hemoglobin was measured using the Drabkin method and the Drabkin reagent kit 525 (Sigma-Aldrich), and immunohistochemistry was performed using anti-CD31 antibody (BD Biosciences) to identify infiltrating ECs.

The subject of another assay is C57BL/6J mice. The assay can be described thus: Mouse model of oxygen-induced retinopathy (OIR). The format is in vivo. The following applies: injected every day for five days from P12. How it is done: OIR was induced in C57BL/6J mice as previously described (Connor et al., 2009). Briefly, litters of postnatal day seven (P7) C57BL/6J pups were placed in a 75% oxygen atmosphere for five days and then returned to room air at age P12. After returning to room air, the pups were injected with PBS, Con-pep and PTD-A2 every day for five days. Following the injections, crumps of non-vascular regions, vascular regions and blood vessels were detected with CD31 staining.

For assay [2], the system named is HUVECs. The assay can be described thus: HUVEC cell viability with or without VEGF. The format is cell-based, human. How it is done:
Endothelial progenitor cells (EPC) were isolated from human umbilical cord blood as previously described (Maeng et al., 2009). Briefly, human umbilical cord blood samples (approximately 50 mL each) were collected from fresh placentas with attached umbilical cords by gravity flow. Human umbilical vein endothelial cells (HUVECs) were isolated from human umbilical cord veins using collagenase as described previously (Marin et al., 2001), and cells from passages three to six were used. HUVECs were cultured on 2% gelatin-coated dishes at 37° C. in a 5% CO2-humidified atmosphere using M199 medium (HyClone) containing 20% fetal bovine serum (FBS), 100 U/mL penicillin, 100 μg/mL streptomycin, 3 ng/mL bFGF (Upstate Biotechnology), and 5 U/mL heparin.
(§2) The PTD-A2 of FITC-linker-YGRKKRRQRRR-GKRVVFLEPLKDTA (SEQ ID NO: 37) (decoy peptide) and the control peptide (FITC-linker-YGRKKRRQRRR-GRVKTDFLAVPEKL (SEQ ID NO: 38)) (Con-pep) were obtained from Peptron. The experiment was performed using 5 μM concentration in vitro, 4 mg/kg was used for an animal experiment. Peptide treated HUVECs were incubated with serum-free M199 medium at 37° C.

Another assay deals with T2, PDK1 PH domain (Homo sapiens, UniProt O15530).
T2 construct: the purified His-tagged PH domain proteins were incubated with Ni^2+-NTA resins; made in house; host or cells: Escherichia coli BL21
T2 sequence (O15530 459-550 limits assumed): T1 sequence (O15530 459-550 limits assumed)
As to the kind of experiment: Decoy peptide binding assay (FITC-PTD-A2 with His-tagged PH domain proteins). The following applies: FITC-PTD-A2, PH domain proteins 0-60 μg, fluorescence. How it is done:
as §1

The target in assay [3] is T3, association between AMIGO2 and PDK1 (Homo sapiens, UniProt O15530).
T3 construct: endogenous in cells; host or cells: endothelial cells (HUVECs)
T3 sequence (O15530 1-556): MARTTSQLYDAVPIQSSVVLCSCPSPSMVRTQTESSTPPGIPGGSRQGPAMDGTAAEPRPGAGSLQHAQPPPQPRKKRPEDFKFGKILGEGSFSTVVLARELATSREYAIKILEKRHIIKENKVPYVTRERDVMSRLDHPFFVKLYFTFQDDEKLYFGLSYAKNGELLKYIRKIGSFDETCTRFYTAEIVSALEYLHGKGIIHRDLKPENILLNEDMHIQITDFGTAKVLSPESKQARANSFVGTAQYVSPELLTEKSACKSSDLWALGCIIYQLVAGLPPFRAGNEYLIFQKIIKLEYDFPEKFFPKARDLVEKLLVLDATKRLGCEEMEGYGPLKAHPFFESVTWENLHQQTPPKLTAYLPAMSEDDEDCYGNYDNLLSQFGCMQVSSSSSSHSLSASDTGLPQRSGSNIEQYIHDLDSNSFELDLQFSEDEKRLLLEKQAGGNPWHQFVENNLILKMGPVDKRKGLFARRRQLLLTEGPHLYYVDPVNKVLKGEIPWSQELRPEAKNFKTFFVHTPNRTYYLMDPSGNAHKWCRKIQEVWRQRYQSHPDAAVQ
The assay can be described thus: Immunoprecipitation of AMIGO2 and blotting for PDK1 in peptide-treated HUVECs. The format is cell-based. How it is done: For co-immunoprecipitation, HEK293T cells were lysed in 1 mL lysis buffer (20 mmol/L Tris/HCl pH 8.0, 2 mmol/L EDTA, 137 mmol/L NaCl, 1 mmol/L NaVO4, 1 mmol/L PMSF, 10% glycerol, and 1% Triton X-100), and were centrifuged at 14,000×g for 15 min at 4° C., and then the supernatants were immunoprecipitated with antibodies against FLAG (Sigma-Aldrich) and GFP (Santa Cruz Biotechnology) at 4° C. overnight. The immunoprecipitated proteins were obtained by using protein A-agarose beads (Upstate Biotechnology), and detected by SDS-PAGE.
as §2

The subject of a further assay is PDK1. As to the kind of experiment: PDK1 localization in HUVECs after VEGF treatment (immunofluorescence). The format is cell-based, human. As to conditions: PTD-A2-treated HUVECs. How it is done: (§3) HUVECs were fixed in 3.7% formaldehyde for 10 min and permeabilized with 0.1% Triton X-100 on the ice. Cells were labeled with anti-FAK antibody (Santa Cruz Biotechnology), anti-PDK1 antibody (Cell Signaling Technology), anti-Akt antibody (Cell Signaling Technology), and anti-AMIGO2 antibody (Abcam) for 2 h at room temperature or overnight at 4° C. Afterwards, the cells were incubated with Alexa 488 and Alexa 546 secondary antibodies (Invitrogen) for 60 min at room temperature, and were then examined under a confocal microscope (LSM 700 META; Carl Zeiss).
as §2

The test system of the next assay is Akt and PDK1. As to the kind of experiment: VEGF-induced Akt signaling in HUVECs. The assay is classed as cell-based, human. As to conditions: PTD-A2-treated HUVECs. On the procedure:
as §2

The subject of assay [4] is HUVECs. As to the kind of experiment: Matrigel-induced tube formation assay. The assay is classed as cell-based, human. The following applies: PTD-A2 treated ECs. On the procedure:
The tube formation was assayed as previously described (Choi et al., 2009). Briefly, 250 μL of Matrigel™ (BD Biosciences) was added to a 16-mm diameter tissue culture well on the ice. HUVEC cells then ware placed on that and tube formation was confirmed. The images of the tubes were quantified using ImageJ software (National Institutes of Health).

Assay [5] concerns HUVECs. As to the kind of experiment: FAK immunostaining, F-actin staining and apoptosis markers in siRNA-transfected HUVECs. The assay is classed as cell-based, human. How it is done:
(§4) HUVECs were transfected with scrambled (control) and human AMIGO2 siRNAs using Lipofectamine® (Invitrogen) for 3 h, and cells were assayed 48 h after transfection. Human AMIGO2 siRNA was designed by Invitrogen using the following sequences: 5′-[…]-3′ (SEQ ID NO: 8) and 5′-[…]-3′ (SEQ ID NO: 9). HUVECs were transfected with EGFP-tagged plasmids using Lipofectamine® LTX and PLUS™ (Invitrogen) for 2 h, and cells were assayed 24 h after transfection.
as §3

A further assay has as its system Akt. The assay can be described thus: Endogenous Akt signaling in AMIGO2 siRNA-transfected HUVECs. The assay is classed as cell-based, human. On the procedure:
as §4

Assay [6] concerns HUVECs. The assay can be described thus: EC adhesion assay. The format is cell-based, human. As to conditions: siRNA-transfected HUVECs. How it is done: as §4
HUVECs transfected with siRNA were trypsinized and washed twice in phenol-free M199. Prior to seeding, a 96-well plate was coated with 2% gelatin, fibronectin (3 μg/ml in PBS), and collagen type I (10 μg/ml in PBS), and incubated at 37° C. for 1 h in a humidified incubator. Prior to the initiation of the experiments, the wells were rinsed twice with PBS. HUVECs were labeled with calcein AM, and 1.5×10^4 cells were seeded into each well of the 96-well plates. Cells were incubated for 1 h at 37° C., and non-adherent, calcein-labeled cells were removed by four washes. M199 containing 20% FBS was added to the cells in each well, and the fluorescence was measured (maximum absorbance at 494 nm and maximum emission at 517 nm) using a fluorescein filter set by FLUOstar Omega (BGM LABTECH).

Consider two substances from patent publication US10125183B2, “Decoy peptides inhibiting binding of AMIGO2 and 3-phosphoinositide-dependent kinase 1” (Curacle Co., Ltd., priority 2015, dated 2018).

As to “FITC-linker-YGRKKRRQRRR-GKRVVFLEPLKDTA (SEQ ID NO: 37) [PTD-A2]”, in [1], the “interaction of the CD of AMIGO2 and PH domain of PDK1” value is reported as “inhibited”. Further, the “apoptotic regions of tumors (TUNEL assay)” value with B16F10 melanoma tumors (compared to PBS or Con-pep groups) is given as “increased”. Moreover, the tumor formation result with B16F10 melanoma tumors (intratumoral injection) is reported as “decreased”. Besides, the tumor angiogenesis entry in the assay on B16F10 melanoma tumors (intratumoral, CD31 staining) was “decreased”. In the assay on C57BL/6 mice, the “hemoglobin contents of Matrigel plugs” value is recorded as “lower” and the “neovascularization in Matrigel plugs” value is given as “dramatic inhibition”. In the assay on C57BL/6J mice, the “avascular areas of retinas” value is “increased”, the retinal hemorrhage entry is “significantly reduced”, the retinal vascular areas result is given as “significantly reduced” and the tuft formation result is “significantly reduced”. For the same substance, the “cell viability of PTD-A2-treated HUVECs” value in the assay with HUVECs [2] (serum-free starvation with or without VEGF) is “dose and time-dependent inhibitory effect”. Moreover, the “binding to the PDK1 PH domain” value on PDK1 PH domain is “bound”. Besides, in assay [3], the “association between AMIGO2 and PDK1 in endothelial cells” value was “inhibited”. Also, the “PDK1 localization to the plasma membrane following VEGF treatment” value in the assay on PDK1 is reported as “unable to move to the plasma membrane”. In addition, in the assay on Akt and PDK1, the “activity of both Akt and PDK1” value is on record as “reduced”. Also, the Matrigel-induced tube formation entry in the assay with HUVECs [4] is “inhibited”.

In the case of “5′-UUAGGAUGCCCUCAGCUAUCACUGC-3′ (SEQ ID NO: 8) and 5′-AUUGUUGUAAAGCAGAAGCACUUCC-3′ (SEQ ID NO: 9) [AMIGO2 siRNA]”, in the assay with HUVECs [5], the “active caspase-3 and FAK fragments” value is listed as “detected”; the “expression of FAK (immunostaining)” value is “low”. In the assay with HUVECs [5] (rhodamine-phalloidin staining), the F-actin depolymerization result is “exhibited F-actin depolymerization”. Further, the “Akt phosphorylation (Thr308 and Ser473)” value in the assay with Akt is recorded as “reduced”. In the assay with HUVECs [6], the “adhesion on ECM substrates (gelatin, fibronectin, collagen type I)” value is “reduced”. For the same substance, the “cell viability of siRNA-transfected HUVECs” value with HUVECs [2] (in the presence or absence of VEGF) is listed as “decreased”.
